Literature values as cited in US8007820B2, “Wide spectrum insecticide and miticide composition” (W. Neudorff GmbH KG, priority 2005, dated 2011).

Settings: as formulated material

Substance: Spinosad
- shelf life: about three
